Reference: patent US20240285621A1, “PYRAZOLYL-PYRIMIDINE DERIVATIVES AS KINASE INHIBITORS” (NERVIANO MEDICAL SCIENCES S.R.L., priority 2020, published 2024)

Tests used:
[1] = biological target: T1, SYK (Homo sapiens, UniProt P43405); experiment: Biochemical kinase inhibition assay on SYK, KinaseGlo assay format; settings: Table A; KinaseGlo format, pre-activated SYK 2.5 nM, ATP 2.5 μM, substrate BioDBn*327 125 uM, 60 minutes at rt; read-out: IC50 (μM) Kglo
T1 construct: Recombinant proteins SYK FL was produced at NMS via baculo virus infection in insect cells; His; GST; made in house; host or cells: insect cells (baculovirus)

[2] = biological target: T1, SYK; experiment: Biochemical kinase inhibition assay on SYK, ADPGlo assay format; settings: Table A, pre-activated SYK 0.6 nM, ATP 60 μM, BioDBn*327 125 μM, 60 minutes at room temperature

| SMILES | IC50 [1] | IC50 [2] |
| --- | --- | --- |
| COc1cc(Nc2nccc(-c3cc(C(=O)NCCN(C)C)n(C)n3)n2)cc(OC)c1 [Example 72, 3-{2-[(3,5-dimethoxyphenyl)amino]pyrimidin-4-yl}-N-[2-(dimethylamino)ethyl]-1-methyl-1H-pyrazole-5-carboxamide] | 0.034 µM | 0.087 µM |
| C[C@@H](CN(C)C)NC(=O)c1cc(-c2ccnc(Nc3cnn(C)c3)n2)nn1C [Example 75, N-[(2S)-1-(dimethylamino)propan-2-yl]-1-methyl-3-{2-[(1-methyl-1H-pyrazol-4-yl)amino]pyrimidin-4-yl}-1H-pyrazole-5-carboxamide] | 0.273 µM | 0.473 µM |
| COc1cc(C#N)cc(Nc2nccc(-c3cc(C(=O)N[C@@H](C)CN(C)C)n(C)n3)n2)c1 [Example 78, 3-{2-[(3-cyano-5-methoxyphenyl)amino]pyrimidin-4-yl}-N-[(2S)-1-(dimethylamino)propan-2-yl]-1-methyl-1H-pyrazole-5-carboxamide] | 0.015 µM | 0.033 µM |

Further lines, results first:

| IC50 [1] | IC50 [2] | SMILES |
| --- | --- | --- |
| 0.007 µM | 0.026 µM | COc1cc(C#N)cc(Nc2nccc(-c3cc(C(=O)N[C@@H](C)CN4CCC4)n(C)n3)n2)c1 [Example 79, N-[(2S)-1-(azetidin-1-yl)propan-2-yl]-3-{2-[(3-cyano-5-methoxyphenyl)amino]pyrimidin-4-yl}-1-methyl-1H-pyrazole-5-carboxamide] |
| 0.044 µM | 0.081 µM | COc1cncc(Nc2nccc(-c3cc(C(=O)N[C@@H](C)CN4CCC4)n(C)n3)n2)c1 [Example 80, N-[(2S)-1-(azetidin-1-yl)propan-2-yl]-3-{2-[(5-methoxypyridin-3-yl)amino]pyrimidin-4-yl}-1-methyl-1H-pyrazole-5-carboxamide] |
